In patent publication US8828972B2, “Formulations containing alkylphosphocholines using novel negative charge carriers” (Max-Planck-Gesellschaft zur Foerderung der Wissenschaften …, priority 2004, dated 2014):

Assays:
[1] = test system: Cushing's and bladder tumours; assay: Treatment of cancer in dogs; type: in vivo
Tumour cells = assay: Sensitisation of tumour cells to radiation therapy; type: cell-based; settings: tumour cells doped with the substance

Structure (SMILES) | treatment of Cushing's and bladder tumours [1] | sensitisation to radiation therapy (Tumour cells)
CCCCCCCCC=CCCCCCCCCCCCCOP(=O)([O-])OCCC[N+](C)(C)C [erucylphospho-(N,N,N-trimethyl)-propylammonium] | treated successfully | 
CCCCCCCCC=CCCCCCCCCCCCCOP(=O)([O-])OCCC[N+](C)(C)C [erufosin] |  | sensitised to radiation therapy
